Legend:
A549 cells = test: Proliferation Assay (A549 viability, Cell Titer Fluor, 72 hours); format: cell-based; conditions: Homo sapiens, A549, 72 h
How it was run: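 Cell Titer Fluor fluorescence after 72 h compound treatment (0.5% DMSO, 37 °C, 5% CO2) of A549 cells plated 24 h earlier at 1000/well. Four-parameter logistic fitting gave IC50.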

[1] = target: purified recombinant human GAC (GLS1) (Homo sapiens (Human), UniProt O94925); test: GLS1 Enzymatic Activity Assay (dual-coupled enzymatic assay, resorufin/Amplex UltraRed readout); format: biochemical;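 note: glutamate from GAC coupled via glutamate oxidase and peroxidase to resorufin, read as fluorescence (ex 530, em 590 nm) kinetically or at 20 min, four-parameter logistic IC50 fit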
Sequence of purified recombinant human GAC (GLS1) (O94925 other isoform, or with tags, fused parts or gaps): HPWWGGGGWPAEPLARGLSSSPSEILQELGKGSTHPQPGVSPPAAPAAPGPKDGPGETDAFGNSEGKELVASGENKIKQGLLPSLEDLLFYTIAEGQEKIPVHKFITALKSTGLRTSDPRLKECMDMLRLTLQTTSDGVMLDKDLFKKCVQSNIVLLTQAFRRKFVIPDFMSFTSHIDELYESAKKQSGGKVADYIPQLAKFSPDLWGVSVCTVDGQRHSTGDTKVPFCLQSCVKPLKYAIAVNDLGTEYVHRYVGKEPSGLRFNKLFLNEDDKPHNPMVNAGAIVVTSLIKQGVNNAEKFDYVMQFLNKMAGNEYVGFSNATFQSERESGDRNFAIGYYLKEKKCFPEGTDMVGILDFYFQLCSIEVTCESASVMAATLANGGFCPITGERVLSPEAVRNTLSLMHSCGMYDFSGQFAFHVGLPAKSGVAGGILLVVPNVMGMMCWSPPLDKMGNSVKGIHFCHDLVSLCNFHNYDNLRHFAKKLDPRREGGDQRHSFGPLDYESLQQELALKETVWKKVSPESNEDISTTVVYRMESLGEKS

EC50 (A549 cells)	IC50 [1]	Compound
< 100 nM	< 100 nM	O=C(Cc1cc(OC(F)(F)F)ccc1F)Nc1ccc(CCCCn2cc(C(=O)NCc3cccnc3)nn2)nn1 [Example 586, 1-(4-(6-(2-(2-fluoro-5-(trifluoromethoxy)phenyl)acetamido)pyridazin-3-yl)butyl)-N-(pyridin-3-ylmethyl)-1H-1,2,3-triazole-4-carboxamide]
100 to 500 nM	< 100 nM	O=C(NCc1cccc(OC(F)(F)F)c1)c1cn(CCCCc2ccc(NC(=O)C3CC3)nn2)nn1 [Example 176, 1-[4-(6-cyclopropaneamidopyridazin-3-yl)butyl]-N-{[3-(trifluoromethoxy)phenyl]methyl}-1H-1,2,3-triazole-4-carboxamide]
< 100 nM	< 100 nM	O=C(NCc1cccc(F)c1)c1cn(CCC(F)Cn2cc(C(=O)NCc3cc(C(F)(F)F)ccn3)nn2)nn1 (stereo not shown) [Example 466, 1-[2-fluoro-4-(4-{[(3-fluorophenyl)methyl]carbamoyl}-1H-1,2,3-triazol-1-yl)butyl]-N-{[4-(trifluoromethyl)pyridin-2-yl]methyl}-1H-1,2,3-triazole-4-carboxamide]
< 100 nM	< 100 nM	O=C(NCc1cc(C(F)(F)F)ccn1)c1cn(CC(F)CCc2nnc(C(=O)NCc3cccc(C(F)(F)F)n3)s2)nn1 (stereo not shown) [Example 491, 5-{3-fluoro-4-[4-({[4-(trifluoromethyl)pyridin-2-yl]methyl}carbamoyl)-1H-1,2,3-triazol-1-yl]butyl}-N-{[6-(trifluoromethyl)pyridin-2-yl]methyl}-1,3,4-thiadiazole-2-carboxamide]
100 to 500 nM	< 100 nM	CNC(=O)c1cn(CCCCc2ccc(NC(=O)Cc3cccc(N4CCCC4)c3)nn2)nn1 [Example 565, N-methyl-1-(4-(6-(2-(3-(pyrrolidin-1-yl)phenyl)acetamido)pyridazin-3-yl)butyl)-1H-1,2,3-triazole-4-carboxamide]
< 100 nM	< 100 nM	CC(C)COC(=O)NCc1cn(CCCCn2cc(C(=O)NCc3cccc(OC(F)(F)F)c3)nn2)nn1 [Example 56, 2-methylpropyl N-[(1-{4-[4-({[3-(trifluoromethoxy)phenyl]methyl}carbamoyl)-1H-1,2,3-triazol-1-yl]butyl}-1H-1,2,3-triazol-4-yl)methyl]carbamate]
100 to 500 nM	< 100 nM	CNC(=O)c1cn(CC(F)CCc2nnc(NC(=O)Cc3cccc(OC(F)(F)F)c3)s2)nn1 (stereo not shown) [Example 497, 1-(2-fluoro-4-(5-(2-(3-(trifluoromethoxy)phenyl)acetamido)-1,3,4-thiadiazol-2-yl)butyl)-N-methyl-1H-1,2,3-triazole-4-carboxamide]
100 to 500 nM	< 100 nM	N#CCNC(=O)c1cn(CCC(F)Cn2cc(C(=O)NCc3cc(OC(F)(F)F)ccc3F)nn2)nn1 (stereo not shown) [Example 168, N-(cyanomethyl)-1-{3-fluoro-4-[4-({[2-fluoro-5-(trifluoromethoxy)phenyl]methyl}carbamoyl)-1H-1,2,3-triazol-1-yl]butyl}-1H-1,2,3-triazole-4-carboxamide]
< 100 nM	< 100 nM	O=C(Cc1cc(OC(F)(F)F)ccc1F)Nc1nnc(CCC(F)Cn2cc(C(=O)NCc3ccc(C(F)(F)F)cn3)nn2)s1 (stereo not shown) [Example 516, 1-[2-fluoro-4-(5-{2-[2-fluoro-5-(trifluoromethoxy)phenyl]acetamido}-1,3,4-thiadiazol-2-yl)butyl]-N-{[5-(trifluoromethyl)pyridin-2-yl]methyl}-1H-1,2,3-triazole-4-carboxamide]
100 to 500 nM	100 to 500 nM	C[C@@H](NC(=O)c1cn(CCC(F)Cn2cc(C(=O)NCc3cc(C(F)(F)F)ccn3)nn2)nn1)c1ccccc1 (stereo partly drawn) [Example 131, 1-[2-fluoro-4-(4-{[(1R)-1-phenylethyl]carbamoyl}-1H-1,2,3-triazol-1-yl)butyl]-N-{[4-(trifluoromethyl)pyridin-2-yl]methyl}-1H-1,2,3-triazole-4-carboxamide]
< 100 nM	< 100 nM	O=C(Cc1cc(Cl)ccc1F)Nc1cn(CCCCn2cc(C(=O)NCc3cc(Cl)ccc3F)nn2)nn1 [Example 415, 1-(4-{4-[2-(5-chloro-2-fluorophenyl)acetamido]-1H-1,2,3-triazol-1-yl}butyl)-N-[(5-chloro-2-fluorophenyl)methyl]-1H-1,2,3-triazole-4-carboxamide]
500 to 5000 nM	500 to 5000 nM	O=C(CC1CCCCC1)Nc1cn(CCCCn2cc(C(=O)NCC3CC3)nn2)nn1 [Example 305, 1-{4-[4-(2-cyclohexylacetamido)-1H-1,2,3-triazol-1-yl]butyl}-N-(cyclopropylmethyl)-1H-1,2,3-triazole-4-carboxamide]
100 to 500 nM	100 to 500 nM	O=C(NCc1cccc(OC(F)(F)F)c1)c1cn(CCCCn2cc(C(=O)NCc3cnccn3)nn2)nn1 [Example 126, N-(pyrazin-2-ylmethyl)-1-{4-[4-({[3-(trifluoromethoxy)phenyl]methyl}carbamoyl)-1H-1,2,3-triazol-1-yl]butyl}-1H-1,2,3-triazole-4-carboxamide]
500 to 5000 nM	100 to 500 nM	O=C(NCc1cccc(C(F)(F)F)c1)c1cn(CCCCn2cc(C(=O)NCC3CCOCC3)nn2)nn1 [Example 120, N-(oxan-4-ylmethyl)-1-{4-[4-({[3-(trifluoromethyl)phenyl]methyl}carbamoyl)-1H-1,2,3-triazol-1-yl]butyl}-1H-1,2,3-triazole-4-carboxamide]
< 100 nM	< 100 nM	Cc1ccc(CC(=O)Nc2cn(CC(F)CCn3cc(C(=O)NCc4cccc(OC(F)(F)F)c4)nn3)nn2)cn1 (stereo not shown) [Example 342, 1-(3-fluoro-4-{4-[2-(6-methylpyridin-3-yl)acetamido]-1H-1,2,3-triazol-1-yl}butyl)-N-{[3-(trifluoromethoxy)phenyl]methyl}-1H-1,2,3-triazole-4-carboxamide]
< 100 nM	< 100 nM	CNC(=O)c1cn(CCCCc2ccc(NC(=O)Cc3cc(C(C)C(F)(F)F)ccn3)nn2)nn1 (stereo not shown) [Example 258, N-methyl-1-(4-(6-(2-(4-(1,1,1-trifluoropropan-2-yl)pyridin-2-yl)acetamido)pyridazin-3-yl)butyl)-1H-1,2,3-triazole-4-carboxamide]
100 to 500 nM	< 100 nM	O=C(Cc1ccccn1)Nc1cn(CCCCn2cc(C(=O)NCc3cccc(OC(F)(F)F)c3)nn2)nn1 [Example 293, 1-(4-{4-[2-(pyridin-2-yl)acetamido]-1H-1,2,3-triazol-1-yl}butyl)-N-{[3-(trifluoromethoxy)phenyl]methyl}-1H-1,2,3-triazole-4-carboxamide]
500 to 5000 nM	100 to 500 nM	CNC(=O)c1cn(CC(F)CCc2nnc(C(=O)NCc3ccccn3)s2)nn1 (stereo not shown) [Example 570, 5-(3-fluoro-4-(4-(methylcarbamoyl)-1H-1,2,3-triazol-1-yl)butyl)-N-(pyridin-2-ylmethyl)-1,3,4-thiadiazole-2-carboxamide]
< 100 nM	< 100 nM	O=C(Cc1ccccn1)Nc1cn(CC(F)CCn2cc(C(=O)NCc3cccc(OC(F)(F)F)c3)nn2)nn1 (stereo not shown) [Example 347, 1-(3-fluoro-4-(4-(2-(pyridin-2-yl)acetamido)-1H-1,2,3-triazol-1-yl)butyl)-N-(3-(trifluoromethoxy)benzyl)-1H-1,2,3-triazole-4-carboxamide]
< 100 nM	< 100 nM	O=C(NCc1cc(OC(F)(F)F)ccc1F)c1cn(CCC(F)Cn2cc(C(=O)NCc3cncc(C(F)(F)F)c3)nn2)nn1 (stereo not shown) [Example 479, 1-{2-fluoro-4-[4-({[2-fluoro-5-(trifluoromethoxy)phenyl]methyl}carbamoyl)-1H-1,2,3-triazol-1-yl]butyl}-N-{[5-(trifluoromethyl)pyridin-3-yl]methyl}-1H-1,2,3-triazole-4-carboxamide]
< 100 nM	< 100 nM	O=C(Cc1ccccn1)Nc1ccc(CCC(F)Cn2cc(C(=O)NCc3cc(C(F)(F)F)ccn3)nn2)nn1 (stereo not shown) [Example 211, 1-(2-fluoro-4-(6-(2-(pyridin-2-yl)acetamido)pyridazin-3-yl)butyl)-N-((4-(trifluoromethyl)pyridin-2-yl)methyl)-1H-1,2,3-triazole-4-carboxamide]
< 100 nM	< 100 nM	O=C(Cc1cccc(OC(F)(F)F)c1)Nc1nnc(CCCCn2cc(C(=O)NCC3CCOC3)nn2)s1 (stereo not shown) [Example 12, N-(oxolan-3-ylmethyl)-1-[4-(5-{2-[3-(trifluoromethoxy)phenyl]acetamido}-1,3,4-thiadiazol-2-yl)butyl]-1H-1,2,3-triazole-4-carboxamide]
500 to 5000 nM	100 to 500 nM	CNC(=O)c1cn(C[C@@H](F)CCc2nnc(C(=O)NCc3cc(C(F)(F)F)ccn3)s2)nn1 (single isomer, unassigned) [Example 220]
100 to 500 nM	< 100 nM	CNC(=O)c1cn(CCCCc2ccc(NC(=O)Cc3cccc(N4CCOCC4)c3)nn2)nn1 [Example 178, N-methyl-1-[4-(6-{2-[3-(morpholin-4-yl)phenyl]acetamido}pyridazin-3-yl)butyl]-1H-1,2,3-triazole-4-carboxamide]
< 100 nM	< 100 nM	O=C(Cc1cccc(OC(F)(F)F)c1)Nc1cn(CC(F)CCn2cc(C(=O)NCc3cccc(C(F)(F)F)n3)nn2)nn1 (stereo not shown) [Example 487, 1-[3-fluoro-4-(4-{2-[3-(trifluoromethoxy)phenyl]acetamido}-1H-1,2,3-triazol-1-yl)butyl]-N-{[6-(trifluoromethyl)pyridin-2-yl]methyl}-1H-1,2,3-triazole-4-carboxamide]
< 100 nM	< 100 nM	O=C(Cc1cc(OC(F)(F)F)ccc1F)Nc1cn(CC(F)CCn2cc(C(=O)NCc3ncccc3F)nn2)nn1 (stereo not shown) [Example 378, 1-[3-fluoro-4-(4-{2-[2-fluoro-5-(trifluoromethoxy)phenyl]acetamido}-1H-1,2,3-triazol-1-yl)butyl]-N-[(3-fluoropyridin-2-yl)methyl]-1H-1,2,3-triazole-4-carboxamide]

— patent US10344025B2, “GLS1 inhibitors for treating disease” (Board of Regents, The University of Texas System, priority 2014, dated 2019)
